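Five compound concentrations were applied to cells in 96-well plates for 48 hours; endpoints were derived by simple linear interpolation of the resulting dose-response curve. At the TGI there is no net growth.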
Legend:
Assay in all cases: growth of human tumour cells (NCI), 48 h
SNB-75 CNS = test system: SNB-75 CNS
SN12C renal = test system: SN12C renal
OVCAR-8 ovarian = test system: OVCAR-8 ovarian
SW-620 colon = test system: SW-620 colon
RPMI-8226 leukemia = test system: RPMI-8226 leukemia
A549 NSCLC = test system: A549 NSCLC
UO-31 renal = test system: UO-31 renal
SF-268 CNS = test system: SF-268 CNS
HT29 colon = test system: HT29 colon

Row | SMILES | TGI (SNB-75 CNS) [µM] | TGI (SN12C renal) [µM] | TGI (OVCAR-8 ovarian) [µM] | TGI (SW-620 colon) [µM] | TGI (RPMI-8226 leukemia) [µM] | TGI (A549 NSCLC) [µM] | TGI (UO-31 renal) [µM] | TGI (SF-268 CNS) [µM] | TGI (HT29 colon) [µM]
1 | N=CCCN(CCC=N)c1ccc(/C=C2\CN(NC(=O)c3ccc(Cl)cc3)C(c3ccccc3)=N2)cc1 | > 100 | > 100 | > 100 | 30.6 | 53.6 | > 100 | > 100 | > 100 | > 100
2 | C[C@@H](C1CCC2C3C(=CC(=O)[C@@]21C)[C@H](C)[C@]1(CCC(=O)O1)C1OC31)[C@H]1C[C@]2(C)O[C@@](C)(O1)OC2(C)C (some centres not stated) | – | > 100 | > 100 | > 100 | > 100 | > 100 | > 100 | > 100 | > 100
3 | N#CNC(N)=NCCO | > 100 | > 100 | > 100 | 35.9 | > 100 | > 100 | > 100 | > 100 | > 100
4 | O=C(c1ccccc1)C(c1ccccc1)C1(O)C(=O)Nc2ccccc21 (configuration not stated) | > 100 | > 100 | > 100 | > 100 | > 100 | > 100 | > 100 | > 100 | > 100
5 | Cc1ccc(NC(=O)CC/C(CC(=O)C(C)(C)C)=N/NC(=O)C(N)=O)cc1C | > 100 | > 100 | > 100 | > 100 | > 100 | > 100 | > 100 | > 100 | > 100
6 | Cc1c(C(=O)CC(=O)C(=O)Nc2c(C(C)C)cccc2C(C)C)[n+](=O)c2ccccc2n1[O-] | 31.4 | 12.2 | 7.38 | 13.2 | 15.4 | 32.3 | 31.4 | 25.2 | 13.9
7 | Clc1ccccc1C(n1ncc2ccccc21)n1ncc2ccccc21 | 65.6 | > 100 | > 100 | > 100 | 63.3 | – | 94.4 | > 100 | > 100
8 | O=C1c2cccc3cc([N+](=O)[O-])cc(c23)C(=O)N1NC1=NCCN1 | > 100 | > 100 | > 100 | > 100 | > 100 | > 100 | > 100 | > 100 | > 100
9 | Cc1nc2ccccc2c(=O)n1/N=C(\N=Nc1cc(Cl)ccc1Cl)c1cccc(-c2ccco2)c1 | > 100 | > 100 | > 100 | > 100 | > 100 | > 100 | > 100 | > 100 | > 100
10 | CC(C)(C)N/N=C(\Cc1occc(=O)c1O)C(=O)Nc1ccc([N+](=O)[O-])cc1[N+](=O)[O-] | > 100 | > 100 | > 100 | > 100 | > 100 | > 100 | > 100 | > 100 | > 100
11 | COc1cc(=O)oc(/C=C/C=O)c1C | 32.8 | 20.7 | 81.1 | 37.6 | – | > 100 | 39.4 | 28.2 | 40.7
12 | O=C1c2ccccc2C(=O)C2C1C1C(=O)c3ccccc3C(=O)C21 (configuration not stated) | > 100 | > 100 | > 100 | > 100 | – | > 100 | > 100 | > 100 | > 100
13 | NC(N)=NS(=O)(=O)c1ccc(Nc2c3ccccc3nc3c(C(=O)N4CCN(CCO)CC4)cccc23)cc1 | > 100 | > 100 | > 100 | > 100 | – | > 100 | > 100 | > 100 | > 100
14 | COC(=O)[C@H]1[C@H]2C[C@@H]3c4[nH]c5cc(OC)ccc5c4CCN3C[C@H]2C[C@@H](OC(=O)c2cc(OC)c(OC)c(OC)c2)[C@@H]1OC | 10.2 | – | 49.6 | > 100 | 39.5 | 55.5 | 43.5 | > 100 | 29.8
15 | O=C(CC(=O)c1ccc([N+](=O)[O-])cc1)C(=O)Nc1nccs1 | > 100 | > 100 | > 100 | > 100 | > 100 | > 100 | > 100 | > 100 | > 100
16 | CC(C)N(C(=O)C12C3C4C5C3C1(C(=O)N(C(C)C)C(C)C)C5(C#N)C42)C(C)C (configuration not stated) | > 100 | > 100 | > 100 | > 100 | 66.2 | > 100 | > 100 | > 100 | > 100
17 | [N-]=[N+]=Nc1ccc(CCN2CCN(c3cccc(C(F)(F)F)c3)CC2)cc1I | > 100 | > 100 | > 100 | > 100 | 69.4 | > 100 | > 100 | > 100 | > 100

Source: PubChem BioAssay (NCI)
